Reference: PMC9537276, “A pathway for chitin oxidation in marine bacteria” (Nature Communications, 2022)

Columns and labels:
OngB = target: T1, OngB (Pseudoalteromonas prydzensis, UniProt A0A7V1CY72); test: acetate release assay kit; Q-TOF-MS; assay type: biochemical; conditions: 25 mM substrate, 10 mM Bis-Tris-HCl pH 7.5, 25 °C, 30 min
T1 construct: gene ENH88_07920; full length, C-terminal His tag, pET22b, E. coli BL21 (DE3)
T1 sequence (A0A7V1CY72 1-489): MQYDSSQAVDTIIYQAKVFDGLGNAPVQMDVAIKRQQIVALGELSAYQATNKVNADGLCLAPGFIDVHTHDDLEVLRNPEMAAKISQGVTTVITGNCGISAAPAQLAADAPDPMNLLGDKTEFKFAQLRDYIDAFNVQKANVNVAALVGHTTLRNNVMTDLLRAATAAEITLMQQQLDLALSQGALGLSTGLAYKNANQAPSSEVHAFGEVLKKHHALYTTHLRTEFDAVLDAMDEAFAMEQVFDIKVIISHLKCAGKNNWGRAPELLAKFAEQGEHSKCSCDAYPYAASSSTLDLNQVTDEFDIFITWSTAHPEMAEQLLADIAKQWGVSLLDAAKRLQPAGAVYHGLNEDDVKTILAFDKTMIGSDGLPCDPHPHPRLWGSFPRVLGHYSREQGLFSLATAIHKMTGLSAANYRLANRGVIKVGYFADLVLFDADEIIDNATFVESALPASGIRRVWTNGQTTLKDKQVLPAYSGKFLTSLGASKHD

OngC = target: T2, OngC (Pseudoalteromonas prydzensis, UniProt Z9U939ZVG8); test: ammonia release assay kit; Q-TOF-MS; assay type: biochemical; conditions: 10 mM substrate (made in situ by OngB from GlcNAc1A), 10 mM Bis-Tris-HCl pH 7.5, 25 °C
T2 construct: full length, C-terminal His tag, pET22b, E. coli BL21 (DE3)
T2 sequence (Z9U939ZVG8 1-415): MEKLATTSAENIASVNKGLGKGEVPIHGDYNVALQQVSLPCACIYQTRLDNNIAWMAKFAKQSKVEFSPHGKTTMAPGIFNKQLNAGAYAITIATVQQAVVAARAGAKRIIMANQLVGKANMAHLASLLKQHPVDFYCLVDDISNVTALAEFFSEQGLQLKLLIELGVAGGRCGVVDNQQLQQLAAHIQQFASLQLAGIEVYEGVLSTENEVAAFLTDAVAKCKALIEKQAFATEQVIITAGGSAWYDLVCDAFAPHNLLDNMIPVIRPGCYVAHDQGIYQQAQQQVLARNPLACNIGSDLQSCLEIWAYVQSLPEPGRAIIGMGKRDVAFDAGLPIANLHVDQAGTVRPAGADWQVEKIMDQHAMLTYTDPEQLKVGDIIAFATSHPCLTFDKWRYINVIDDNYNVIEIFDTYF

Row | Structure (SMILES) | acetate release assay kit; Q-TOF-MS (OngB) | ammonia release assay kit; Q-TOF-MS (OngC)
1 | CC(=O)N[C@@H](C(=O)O)[C@@H](O)[C@H](O)[C@H](O)CO [GlcNAc1A, 2-(acetylamino)−2-deoxy-D-gluconic acid] | Only OngB was shown to act on GlcNAc1A to produce acetate | –
2 | N[C@@H](C(=O)O)[C@@H](O)[C@H](O)[C@H](O)CO [GlcN1A, 2-(amino)-2-deoxy-D-gluconic acid] | – | OngC can deaminate GlcN1A to produce ammonia and KDG
